Data as given in the supplement of paper PMC6045584.
± gives the standard deviation of the averaged measurements.

How the values were obtained:
CANERTINIB = compound: C=CC(=O)Nc1cc2c(Nc3ccc(F)c(Cl)c3)ncnc2cc1OCCCN1CCOCC1 [CANERTINIB]; test: surviving fraction relative to DMSO-only wells; higher = less growth inhibition; details: exposure time: 5 days
In short: (§1)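 For each tumour cell line, log-phase cells were put into 384-well plates at 250–500 cells per well, then after 24 hours exposed continuously for five days to inhibitors at 0.5, 1, 5, 10, 50, 100, 500 and 1000 nM. Viability was assessed by CellTiter-Glo luminescence, with surviving fraction expressed relative to the median of DMSO-only wells. Lines were screened three times and retained only if replicate Pearson r exceeded 0.7 and median Z' exceeded 0.3.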

BI-2536 = compound: CC[C@@H]1C(=O)N(C)c2cnc(Nc3ccc(C(=O)NC4CCN(C)CC4)cc3OC)nc2N1C1CCCC1 [BI-2536]; test: as above; details: exposure time: 5 days
In short: as §1

Test System: MDAMB231 BREAST
- surviving fraction (CANERTINIB; 0.5 nM): 0.93 ± 0.033
- surviving fraction (CANERTINIB; 1 nM): 0.937 ± 0.027
- surviving fraction (CANERTINIB; 5 nM): 0.956 ± 0.022
- surviving fraction (CANERTINIB; 10 nM): 0.946 ± 0.031
- surviving fraction (CANERTINIB; 50 nM): 0.986 ± 0.021
- surviving fraction (CANERTINIB; 100 nM): 0.989 ± 0.029
- surviving fraction (CANERTINIB; 500 nM): 0.874 ± 0.02
- surviving fraction (CANERTINIB; 1000 nM): 0.746 ± 0.039
- surviving fraction (BI-2536; 0.5 nM): 0.975 ± 0.02
- surviving fraction (BI-2536; 1 nM): 0.954 ± 0.01
- surviving fraction (BI-2536; 5 nM): 0.425 ± 0.015
- surviving fraction (BI-2536; 10 nM): 0.385 ± 0.011
- surviving fraction (BI-2536; 50 nM): 0.39 ± 0.011
- surviving fraction (BI-2536; 100 nM): 0.391 ± 0.0073
- surviving fraction (BI-2536; 500 nM): 0.338 ± 0.013
- surviving fraction (BI-2536; 1000 nM): 0.245 ± 0.0063

Test System: HSSYII SYNOVIAL
- surviving fraction (CANERTINIB; 0.5 nM): 0.809 ± 0.039
- surviving fraction (CANERTINIB; 1 nM): 0.794 ± 0.015
- surviving fraction (CANERTINIB; 5 nM): 0.814 ± 0.053
- surviving fraction (CANERTINIB; 10 nM): 0.855 ± 0.037
- surviving fraction (CANERTINIB; 50 nM): 0.889 ± 0.033
- surviving fraction (CANERTINIB; 100 nM): 0.868 ± 0.011
- surviving fraction (CANERTINIB; 500 nM): 0.724 ± 0.031
- surviving fraction (CANERTINIB; 1000 nM): 0.631 ± 0.021
- surviving fraction (BI-2536; 0.5 nM): 0.998 ± 0.053
- surviving fraction (BI-2536; 1 nM): 0.944 ± 0.04
- surviving fraction (BI-2536; 5 nM): 0.102 ± 0.023
- surviving fraction (BI-2536; 10 nM): 0.0418 ± 0.0018
- surviving fraction (BI-2536; 50 nM): 0.045 ± 0.0054
- surviving fraction (BI-2536; 100 nM): 0.0367 ± 0.001
- surviving fraction (BI-2536; 500 nM): 0.0423 ± 0.0025
- surviving fraction (BI-2536; 1000 nM): 0.0472 ± 0.00058

Test System: MDAMB436 BREAST
- surviving fraction (CANERTINIB; 0.5 nM): 0.798 ± 0.056
- surviving fraction (CANERTINIB; 1 nM): 0.875 ± 0.064
- surviving fraction (CANERTINIB; 5 nM): 0.854 ± 0.065
- surviving fraction (CANERTINIB; 10 nM): 0.839 ± 0.061
- surviving fraction (CANERTINIB; 50 nM): 0.956 ± 0.094
- surviving fraction (CANERTINIB; 100 nM): 0.98 ± 0.13
- surviving fraction (CANERTINIB; 500 nM): 0.839 ± 0.054
- surviving fraction (CANERTINIB; 1000 nM): 0.742 ± 0.067
- surviving fraction (BI-2536; 0.5 nM): 0.841 ± 0.027
- surviving fraction (BI-2536; 1 nM): 0.649 ± 0.065
- surviving fraction (BI-2536; 5 nM): 0.4 ± 0.048
- surviving fraction (BI-2536; 10 nM): 0.27 ± 0.0028
- surviving fraction (BI-2536; 50 nM): 0.331 ± 0.017
- surviving fraction (BI-2536; 100 nM): 0.379 ± 0.032
- surviving fraction (BI-2536; 500 nM): 0.394 ± 0.027
- surviving fraction (BI-2536; 1000 nM): 0.38 ± 0.04

Test System: MDAMB361 BREAST
- surviving fraction (CANERTINIB; 0.5 nM): 0.704 ± 0.05
- surviving fraction (CANERTINIB; 1 nM): 0.718 ± 0.16
- surviving fraction (CANERTINIB; 5 nM): 0.642 ± 0.011
- surviving fraction (CANERTINIB; 10 nM): 0.674 ± 0.078
- surviving fraction (CANERTINIB; 50 nM): 0.74 ± 0.064
- surviving fraction (CANERTINIB; 100 nM): 0.832 ± 0.092
- surviving fraction (CANERTINIB; 500 nM): 0.691 ± 0.067
- surviving fraction (CANERTINIB; 1000 nM): 0.682 ± 0.053
- surviving fraction (BI-2536; 0.5 nM): 0.674 ± 0.046
- surviving fraction (BI-2536; 1 nM): 0.617 ± 0.026
- surviving fraction (BI-2536; 5 nM): 0.578 ± 0.051
- surviving fraction (BI-2536; 10 nM): 0.637 ± 0.0066
- surviving fraction (BI-2536; 50 nM): 0.565 ± 0.026
- surviving fraction (BI-2536; 100 nM): 0.517 ± 0.013
- surviving fraction (BI-2536; 500 nM): 0.245 ± 0.0072
- surviving fraction (BI-2536; 1000 nM): 0.21 ± 0.028

Test System: U2OS BONE
- surviving fraction (CANERTINIB; 0.5 nM): 0.951 ± 0.022
- surviving fraction (CANERTINIB; 1 nM): 0.95 ± 0.041
- surviving fraction (CANERTINIB; 5 nM): 0.942 ± 0.025
- surviving fraction (CANERTINIB; 10 nM): 0.962 ± 0.047
- surviving fraction (CANERTINIB; 50 nM): 0.991 ± 0.0096
- surviving fraction (CANERTINIB; 100 nM): 0.991 ± 0.029
- surviving fraction (CANERTINIB; 500 nM): 0.877 ± 0.017
- surviving fraction (CANERTINIB; 1000 nM): 0.889 ± 0.059
- surviving fraction (BI-2536; 0.5 nM): 1.04 ± 0.027
- surviving fraction (BI-2536; 1 nM): 1.05 ± 0.063
- surviving fraction (BI-2536; 5 nM): 0.902 ± 0.023
- surviving fraction (BI-2536; 10 nM): 0.302 ± 0.023
- surviving fraction (BI-2536; 50 nM): 0.215 ± 0.0062
- surviving fraction (BI-2536; 100 nM): 0.199 ± 0.01
- surviving fraction (BI-2536; 500 nM): 0.188 ± 0.0087
- surviving fraction (BI-2536; 1000 nM): 0.171 ± 0.013

Test System: NOS1 BONE
- surviving fraction (CANERTINIB; 0.5 nM): 0.909 ± 0.16
- surviving fraction (CANERTINIB; 1 nM): 0.939 ± 0.12
- surviving fraction (CANERTINIB; 5 nM): 0.957 ± 0.094
- surviving fraction (CANERTINIB; 10 nM): 1.04 ± 0.14
- surviving fraction (CANERTINIB; 50 nM): 1.04 ± 0.11
- surviving fraction (CANERTINIB; 100 nM): 1.1 ± 0.1
- surviving fraction (CANERTINIB; 500 nM): 0.585 ± 0.052
- surviving fraction (CANERTINIB; 1000 nM): 0.333 ± 0.02
- surviving fraction (BI-2536; 0.5 nM): 1.01 ± 0.12
- surviving fraction (BI-2536; 1 nM): 0.839 ± 0.089
- surviving fraction (BI-2536; 5 nM): 0.338 ± 0.056
- surviving fraction (BI-2536; 10 nM): 0.296 ± 0.046
- surviving fraction (BI-2536; 50 nM): 0.341 ± 0.074
- surviving fraction (BI-2536; 100 nM): 0.387 ± 0.002
- surviving fraction (BI-2536; 500 nM): 0.334 ± 0.034
- surviving fraction (BI-2536; 1000 nM): 0.328 ± 0.02

Test System: CASKI CERVIX
- surviving fraction (CANERTINIB; 0.5 nM): 0.83 ± 0.027
- surviving fraction (CANERTINIB; 1 nM): 0.8 ± 0.042
- surviving fraction (CANERTINIB; 5 nM): 0.644 ± 0.052
- surviving fraction (CANERTINIB; 10 nM): 0.704 ± 0.042
- surviving fraction (CANERTINIB; 50 nM): 0.555 ± 0.037
- surviving fraction (CANERTINIB; 100 nM): 0.516 ± 0.054
- surviving fraction (CANERTINIB; 500 nM): 0.157 ± 0.018
- surviving fraction (CANERTINIB; 1000 nM): 0.151 ± 0.022
- surviving fraction (BI-2536; 0.5 nM): 0.739 ± 0.024
- surviving fraction (BI-2536; 1 nM): 0.427 ± 0.068
- surviving fraction (BI-2536; 5 nM): 0.0607 ± 0.011
- surviving fraction (BI-2536; 10 nM): 0.0583 ± 0.0064
- surviving fraction (BI-2536; 50 nM): 0.0967 ± 0.015
- surviving fraction (BI-2536; 100 nM): 0.075
- surviving fraction (BI-2536; 500 nM): 0.0153 ± 0.0021
- surviving fraction (BI-2536; 1000 nM): 0.0183 ± 0.00058

Test System: HELA CERVIX
- surviving fraction (CANERTINIB; 0.5 nM): 0.9167 ± 0.0022
- surviving fraction (CANERTINIB; 1 nM): 0.8778 ± 0.0083
- surviving fraction (CANERTINIB; 5 nM): 0.888 ± 0.024
- surviving fraction (CANERTINIB; 10 nM): 0.865 ± 0.023
- surviving fraction (CANERTINIB; 50 nM): 1.04 ± 0.084
- surviving fraction (CANERTINIB; 100 nM): 0.979 ± 0.074
- surviving fraction (CANERTINIB; 500 nM): 1.02 ± 0.074
- surviving fraction (CANERTINIB; 1000 nM): 1 ± 0.039
- surviving fraction (BI-2536; 0.5 nM): 1.05 ± 0.05
- surviving fraction (BI-2536; 1 nM): 1.048 ± 0.0063
- surviving fraction (BI-2536; 5 nM): 0.243 ± 0.048
- surviving fraction (BI-2536; 10 nM): 0.033 ± 0.00087
- surviving fraction (BI-2536; 50 nM): 0.0492 ± 0.0016
- surviving fraction (BI-2536; 100 nM): 0.0475 ± 0.0049
- surviving fraction (BI-2536; 500 nM): 0.11 ± 0.0041
- surviving fraction (BI-2536; 1000 nM): 0.133 ± 0.013

Test System: NY BONE
- surviving fraction (CANERTINIB; 0.5 nM): 0.892 ± 0.042
- surviving fraction (CANERTINIB; 1 nM): 0.905 ± 0.031
- surviving fraction (CANERTINIB; 5 nM): 0.998 ± 0.027
- surviving fraction (CANERTINIB; 10 nM): 0.956 ± 0.028
- surviving fraction (CANERTINIB; 50 nM): 0.965 ± 0.052
- surviving fraction (CANERTINIB; 100 nM): 0.955 ± 0.01
- surviving fraction (CANERTINIB; 500 nM): 0.825 ± 0.034
- surviving fraction (CANERTINIB; 1000 nM): 0.69 ± 0.009
- surviving fraction (BI-2536; 0.5 nM): 0.988 ± 0.025
- surviving fraction (BI-2536; 1 nM): 0.851 ± 0.01
- surviving fraction (BI-2536; 5 nM): 0.051 ± 0.0035
- surviving fraction (BI-2536; 10 nM): 0.0633 ± 0.0051
- surviving fraction (BI-2536; 50 nM): 0.17 ± 0.023
- surviving fraction (BI-2536; 100 nM): 0.305 ± 0.0079
- surviving fraction (BI-2536; 500 nM): 0.372 ± 0.0087
- surviving fraction (BI-2536; 1000 nM): 0.298 ± 0.03

Test System: LNCAP PROSTATE
- surviving fraction (CANERTINIB; 0.5 nM): 1.1 ± 0.078
- surviving fraction (CANERTINIB; 1 nM): 1 ± 0.059
- surviving fraction (CANERTINIB; 5 nM): 1.09 ± 0.06
- surviving fraction (CANERTINIB; 10 nM): 1.08 ± 0.036
- surviving fraction (CANERTINIB; 50 nM): 1.01 ± 0.057
- surviving fraction (CANERTINIB; 100 nM): 1.04 ± 0.055
- surviving fraction (CANERTINIB; 500 nM): 0.935 ± 0.093
- surviving fraction (CANERTINIB; 1000 nM): 0.782 ± 0.086
- surviving fraction (BI-2536; 0.5 nM): 1.05 ± 0.099
- surviving fraction (BI-2536; 1 nM): 1.03 ± 0.08
- surviving fraction (BI-2536; 5 nM): 0.0577 ± 0.0084
- surviving fraction (BI-2536; 10 nM): 0.0533 ± 0.0055
- surviving fraction (BI-2536; 50 nM): 0.113 ± 0.018
- surviving fraction (BI-2536; 100 nM): 0.115 ± 0.028
- surviving fraction (BI-2536; 500 nM): 0.141 ± 0.022
- surviving fraction (BI-2536; 1000 nM): 0.112 ± 0.013
